Key:
[1] = system: endogenous cox-2 gene (mRNA of cox-2); experiment: RT-PCR analysis of the expression of cox-2 mRNA in Jurkat cells; assay type: cell-based, human; conditions: PMA 10 ng/ml alone or with calcium ionophore A23187 1 μM, FIG. 3(A)
Procedure: In order to study the regulation of the expression of the endogenous cox-2 gene in the Jurkat cell line, the analysis of the expression of its mRNA was performed by experiments with RT-PCR. At the same time, in order to validate the prom2-1906-LUC construct and to check that the regulation of the cloned promoter is as expected, experiments were carried out of transitory transfection of the prom2-1906-LUC construct using the Jurkat cell line. In both experiments, the cells were treated with compounds that stimulate and inhibit the induction of the promoter of cox-2.
Treatment with activator compounds were carried out using the phorbol ester PMA (Phorbol 12-Myristate 13-Acetate) (10 ng/ml) (Sigma) and the combination of PMA and Calcium ionophore A23187 (1 μM) (Sigma), hereinafter PMA+Ion.
Treatment with drugs that inhibit the induction by PMA+Ion were carried out with cyclosporin A (CsA) (100 ng/ml) or the synthetic glucocorticoide Dexamethasone (Dex) (1 μM) (Sigma).
The results obtained from the analysis by RT-PCR of the expression of mRNA of cox-2 in Jurkat cells are presented in FIG. 3, where the following can be observed:
As a control in both cases, the result obtained for the non-inducible mRNAs of the cox-1 isoform and for the glycerol aldehyde phosphate dehydrogenase (GAPDH) are shown.

cox-2 promoter = experiment: Luciferase activity in stable Jurkat-1906LUC clones (Jurkat-C3-, F9-, C7-1906LUC)
Procedure: The transfection was carried out by means of the technique of electroporation in cuvettes of 0.4 cm (BioRad) with 15×10^6 cells in 0.5 ml of complete medium [RMPI medium supplemented with 10% of foetal serum, L-glutamine 2mM and a mixture of antibiotics] […] After this period, the cells were electroporated in a Gene Pulser II (BioRad) apparatus at 1.500 μFaradays of capacitance and a current of 280 V. Next, the cells were incubated over ice for 10 minutes before adding 10 ml of complete medium. The cells were cultured in this medium in 75 cm^2 culture flasks (Nunc) for 48 hours in a cell incubator at 37° C. with a humidity of 95% and 5% of Co2. At this time, the medium was changed for complete medium with no antibiotics to which hygromycin (Boehringer Mannheim) was added at a concentration of 200 μg/ml. The cells were cultured in this medium for 30 days with successive changes of medium. […] For this, 1×10^6 cells were lysed in 50 μl of lysis buffer (Promega) and with the extracts obtained, the luciferase activity was determined using the reagents contained in the kit of the “Luciferase Assay System” [Promega].
These clones were grown until obtaining at least 1×10^6 cells with which measurement of the luciferase activity could be performed as described earlier. […]

Structure (SMILES) | expression of the mRNA of cox-2 [1] | increase of the basal values of luciferase activity (cox-2 promoter; three stable clones, treatment of 6 hours, FIG. 7) | inhibition of the stimulation obtained with PMA+Ion (luciferase activity) (cox-2 promoter; stable Jurkat clones, 1 hour pre-treatment with compound, then PMA+Ion for 5 hours, FIGS. 8-10)
CCCCCCCCCCCCCC(=O)O[C@@H]1[C@@H](C)[C@@]2(O)[C@@H](C=C(CO)C[C@]3(O)C(=O)C(C)=C[C@@H]23)[C@@H]2C(C)(C)[C@]12OC(C)=O [PMA, Phorbol 12-Myristate 13-Acetate] | slight increase | 3 to 6 times | –
Oc1ccc(C=Cc2cc(O)cc(O)c2)cc1 [Resveratrol] | – | – | produces an inhibition of the stimulation obtained with PMA+Ion

— US20040152126A1, “Methods of screening for cox-2 inhibitors” (priority 1999, published 2004)
